Measured values reported in ChEMBL document CHEMBL4311964, “Potent combretastatin A-4 analogs containing 1,2,4-triazole: Synthesis, antiproliferative, anti-tubulin activity, and docking study” (Eur J Med Chem, 2019).

tested on: HepG2; assay: Antiproliferative activity against human HepG2 cells assessed as cell growth inhibition measured after 48 hrs by MTT assay; format: functional, cell-based; conditions: HepG2, 48 h

Row | IC50 | Structure (SMILES)
1 | 990 nM | COc1cc(-c2nc(C(=O)Nc3cccc(F)c3)nn2-c2ccc(F)c(Cl)c2)cc(OC)c1OC
2 | 2820 nM | COc1ccc(C)cc1NC(=O)c1nc(-c2cc(OC)c(OC)c(OC)c2)n(-c2ccc(F)c(Cl)c2)n1
3 | 900 nM | COc1cc(-c2nc(C(=O)Nc3ccc(F)c(Cl)c3)nn2-c2ccc(F)c(Cl)c2)cc(OC)c1OC
4 | 100 nM | COc1cc(-c2nc(C(=O)Nc3ccc(OC(F)(F)F)cc3)nn2-c2ccc(F)c(Cl)c2)cc(OC)c1OC
5 | 560 nM | COc1cccc(NC(=O)c2nc(-c3cc(OC)c(OC)c(OC)c3)n(-c3ccc(F)c(Cl)c3)n2)c1
6 | 750 nM | COc1ccc(NC(=O)c2nc(-c3cc(OC)c(OC)c(OC)c3)n(-c3ccc(F)c(Cl)c3)n2)cc1
7 | 1590 nM | COc1cc(-c2nc(C(=O)Nc3ccc(C(=O)O)cc3)nn2-c2ccc(F)c(Cl)c2)cc(OC)c1OC
8 | 12700 nM | COc1cc(-c2nc(C(=O)Nc3ccccc3F)nn2-c2ccc(F)c(Cl)c2)cc(OC)c1OC
9 | 410 nM | COc1cc(-c2nc(C(=O)Nc3ccc(F)c(F)c3F)nn2-c2ccc(F)c(Cl)c2)cc(OC)c1OC
10 | 580 nM | COc1ccc(NC(=O)c2nc(-c3cc(OC)c(OC)c(OC)c3)n(-c3ccc(F)c(Cl)c3)n2)c(C)c1

tested on: HL-60; assay: Antiproliferative activity against human HL60 cells assessed as cell growth inhibition measured after 48 hrs by MTT assay; format: functional, cell-based; conditions: HL-60, 48 h

Row | IC50 | Structure (SMILES)
11 | 620 nM | COc1cc(-c2nc(C(=O)Nc3cccc(F)c3)nn2-c2ccc(F)c(Cl)c2)cc(OC)c1OC
12 | 1820 nM | COc1ccc(C)cc1NC(=O)c1nc(-c2cc(OC)c(OC)c(OC)c2)n(-c2ccc(F)c(Cl)c2)n1
13 | 5470 nM | COc1cc(-c2nc(C(=O)Nc3ccc(F)c(Cl)c3)nn2-c2ccc(F)c(Cl)c2)cc(OC)c1OC
14 | 160 nM | COc1cc(-c2nc(C(=O)Nc3ccc(OC(F)(F)F)cc3)nn2-c2ccc(F)c(Cl)c2)cc(OC)c1OC
15 | 800 nM | COc1cccc(NC(=O)c2nc(-c3cc(OC)c(OC)c(OC)c3)n(-c3ccc(F)c(Cl)c3)n2)c1
16 | 2260 nM | COc1ccc(NC(=O)c2nc(-c3cc(OC)c(OC)c(OC)c3)n(-c3ccc(F)c(Cl)c3)n2)cc1
17 | 1180 nM | COc1cc(-c2nc(C(=O)Nc3ccc(C(=O)O)cc3)nn2-c2ccc(F)c(Cl)c2)cc(OC)c1OC
18 | 10 nM | COc1cc(-c2nc(C(=O)Nc3ccccc3F)nn2-c2ccc(F)c(Cl)c2)cc(OC)c1OC
19 | 1320 nM | COc1cc(-c2nc(C(=O)Nc3ccc(F)c(F)c3F)nn2-c2ccc(F)c(Cl)c2)cc(OC)c1OC
20 | 360 nM | COc1ccc(NC(=O)c2nc(-c3cc(OC)c(OC)c(OC)c3)n(-c3ccc(F)c(Cl)c3)n2)c(C)c1

tested on: MCF7; assay: Antiproliferative activity against human MCF7 cells assessed as cell growth inhibition measured after 48 hrs by MTT assay; format: functional, cell-based; conditions: MCF7, 48 h

Row | IC50 | Structure (SMILES)
21 | 110 nM | COc1cc(-c2nc(C(=O)Nc3cccc(F)c3)nn2-c2ccc(F)c(Cl)c2)cc(OC)c1OC
22 | 130 nM | COc1ccc(C)cc1NC(=O)c1nc(-c2cc(OC)c(OC)c(OC)c2)n(-c2ccc(F)c(Cl)c2)n1
23 | 120 nM | COc1cc(-c2nc(C(=O)Nc3ccc(F)c(Cl)c3)nn2-c2ccc(F)c(Cl)c2)cc(OC)c1OC
24 | 310 nM | COc1cc(-c2nc(C(=O)Nc3ccc(OC(F)(F)F)cc3)nn2-c2ccc(F)c(Cl)c2)cc(OC)c1OC
25 | 440 nM | COc1cccc(NC(=O)c2nc(-c3cc(OC)c(OC)c(OC)c3)n(-c3ccc(F)c(Cl)c3)n2)c1
26 | 650 nM | COc1ccc(NC(=O)c2nc(-c3cc(OC)c(OC)c(OC)c3)n(-c3ccc(F)c(Cl)c3)n2)cc1
27 | 50 nM | COc1cc(-c2nc(C(=O)Nc3ccc(C(=O)O)cc3)nn2-c2ccc(F)c(Cl)c2)cc(OC)c1OC
28 | 190 nM | COc1cc(-c2nc(C(=O)Nc3ccccc3F)nn2-c2ccc(F)c(Cl)c2)cc(OC)c1OC
29 | 140 nM | COc1cc(-c2nc(C(=O)Nc3ccc(F)c(F)c3F)nn2-c2ccc(F)c(Cl)c2)cc(OC)c1OC
30 | 1560 nM | COc1ccc(NC(=O)c2nc(-c3cc(OC)c(OC)c(OC)c3)n(-c3ccc(F)c(Cl)c3)n2)c(C)c1
